Assays:
[1] = biological target: T1, ATP-dependent translocase ABCB1 (Mus musculus, UniProt P21447); assay: TP_TRANSPORTER: transepithelial transport (basal to apical) in mdr1a-expressing LLC-PK1 cell; format: functional, cell-based; conditions: pig
[2] = biological target: T1, ATP-dependent translocase ABCB1; assay: TP_TRANSPORTER: tissue concentration in mdr1a(-/-) mouse; format: functional, organism-based; conditions: in vivo
[3] = biological target: ATP-dependent translocase ABCB1 (Homo sapiens, UniProt P08183); assay: TP_TRANSPORTER: transepithelial transport (basal to apical) in MDR1-expressing LLC-PK1 cells; format: functional, cell-based; conditions: pig
ATP-dependent translocase ABCB1 (Homo sapiens, UniProt P08183), sequence (P08183 whole entry): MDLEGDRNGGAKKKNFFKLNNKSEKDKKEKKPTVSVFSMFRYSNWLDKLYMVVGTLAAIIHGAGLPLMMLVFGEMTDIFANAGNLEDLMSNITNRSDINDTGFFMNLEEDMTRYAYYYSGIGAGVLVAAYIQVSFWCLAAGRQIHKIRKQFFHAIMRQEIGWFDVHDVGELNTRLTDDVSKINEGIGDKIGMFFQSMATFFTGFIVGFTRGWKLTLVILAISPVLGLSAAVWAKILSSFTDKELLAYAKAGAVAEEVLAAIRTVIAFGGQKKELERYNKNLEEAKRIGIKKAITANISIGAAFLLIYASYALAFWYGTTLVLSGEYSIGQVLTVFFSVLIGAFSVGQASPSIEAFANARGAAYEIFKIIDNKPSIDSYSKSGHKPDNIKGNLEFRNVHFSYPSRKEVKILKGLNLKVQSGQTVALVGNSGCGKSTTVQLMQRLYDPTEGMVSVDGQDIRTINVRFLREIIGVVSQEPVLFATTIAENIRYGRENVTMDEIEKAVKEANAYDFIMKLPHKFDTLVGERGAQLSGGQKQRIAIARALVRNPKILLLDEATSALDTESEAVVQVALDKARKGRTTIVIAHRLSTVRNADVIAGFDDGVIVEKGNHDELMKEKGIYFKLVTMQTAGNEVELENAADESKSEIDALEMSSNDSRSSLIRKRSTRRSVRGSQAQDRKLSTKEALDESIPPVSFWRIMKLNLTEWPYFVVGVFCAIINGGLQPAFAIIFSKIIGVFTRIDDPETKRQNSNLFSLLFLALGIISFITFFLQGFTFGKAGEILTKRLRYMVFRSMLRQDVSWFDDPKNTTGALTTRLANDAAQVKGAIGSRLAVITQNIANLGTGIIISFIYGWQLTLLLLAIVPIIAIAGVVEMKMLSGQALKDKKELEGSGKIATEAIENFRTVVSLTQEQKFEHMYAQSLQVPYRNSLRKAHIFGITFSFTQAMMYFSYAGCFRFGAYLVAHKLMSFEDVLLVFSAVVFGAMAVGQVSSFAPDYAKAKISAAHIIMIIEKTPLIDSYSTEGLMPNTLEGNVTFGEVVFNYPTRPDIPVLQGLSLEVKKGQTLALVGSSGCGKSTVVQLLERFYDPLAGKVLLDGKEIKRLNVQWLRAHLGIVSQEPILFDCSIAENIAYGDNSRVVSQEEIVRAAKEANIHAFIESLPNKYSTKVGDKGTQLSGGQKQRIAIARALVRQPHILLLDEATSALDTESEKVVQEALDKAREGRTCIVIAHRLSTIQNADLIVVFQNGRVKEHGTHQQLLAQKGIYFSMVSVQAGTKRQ

T1 sequence (P21447 whole entry): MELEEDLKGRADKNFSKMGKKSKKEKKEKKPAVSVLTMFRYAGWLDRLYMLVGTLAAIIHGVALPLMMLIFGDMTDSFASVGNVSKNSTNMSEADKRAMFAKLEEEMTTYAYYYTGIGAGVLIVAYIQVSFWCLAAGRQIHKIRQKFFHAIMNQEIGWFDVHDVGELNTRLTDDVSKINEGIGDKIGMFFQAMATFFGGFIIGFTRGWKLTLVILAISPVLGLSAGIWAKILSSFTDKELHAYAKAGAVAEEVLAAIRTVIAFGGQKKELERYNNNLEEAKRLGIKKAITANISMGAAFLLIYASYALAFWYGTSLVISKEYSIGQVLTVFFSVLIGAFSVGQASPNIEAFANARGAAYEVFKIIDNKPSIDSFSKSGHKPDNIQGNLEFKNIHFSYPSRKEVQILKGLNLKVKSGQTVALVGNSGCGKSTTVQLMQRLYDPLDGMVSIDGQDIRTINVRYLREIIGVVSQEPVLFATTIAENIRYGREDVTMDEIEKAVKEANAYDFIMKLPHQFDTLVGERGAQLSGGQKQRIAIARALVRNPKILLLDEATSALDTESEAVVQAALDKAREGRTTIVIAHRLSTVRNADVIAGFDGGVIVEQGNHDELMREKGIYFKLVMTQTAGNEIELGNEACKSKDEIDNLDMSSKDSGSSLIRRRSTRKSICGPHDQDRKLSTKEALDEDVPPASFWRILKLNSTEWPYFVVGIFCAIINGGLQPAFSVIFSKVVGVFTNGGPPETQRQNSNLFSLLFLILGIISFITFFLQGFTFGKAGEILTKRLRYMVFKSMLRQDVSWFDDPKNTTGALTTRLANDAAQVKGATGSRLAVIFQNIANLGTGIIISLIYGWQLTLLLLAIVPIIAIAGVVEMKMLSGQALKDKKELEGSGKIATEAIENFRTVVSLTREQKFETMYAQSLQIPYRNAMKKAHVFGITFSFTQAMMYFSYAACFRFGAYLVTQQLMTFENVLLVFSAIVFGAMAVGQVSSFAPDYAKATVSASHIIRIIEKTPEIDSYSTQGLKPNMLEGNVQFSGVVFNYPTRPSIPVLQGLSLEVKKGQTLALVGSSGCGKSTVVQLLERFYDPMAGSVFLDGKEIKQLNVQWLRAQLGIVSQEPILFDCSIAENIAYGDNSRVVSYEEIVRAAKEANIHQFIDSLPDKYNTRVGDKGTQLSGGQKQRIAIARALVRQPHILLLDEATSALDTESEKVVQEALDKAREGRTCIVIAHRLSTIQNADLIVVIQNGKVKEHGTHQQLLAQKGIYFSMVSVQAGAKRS

Row | Structure (SMILES) | Activity [1] | Activity [2] | Activity [3]
1 | CC1=C(/C=C/C(C)=C/C=C/C(C)=C/C(=O)O)C(C)(C)CCC1 [TRETINOIN] | is not a substrate [-] | is not a substrate [-] | is not a substrate [-]
2 | c1ccc2c(c1)cc1ccc3cccc4ccc2c1c34 | is not a substrate [-] | – | is not a substrate [-]
